The results in this text go back to patent US20210163532A1, “NOVEL M[…] PEPTIDES” (University of Florida Research Foundation, Incorporated, priority 2018, published 2021).

In data set [1] the test system is mice. Description: Reinstatement of extinguished morphine conditioned place preference. To be noted: for stress-induced reinstatement of morphine CPP, peripheral pretreatment: 10 mg/kg i.p., nor-BNI once 24 h prior, cyclo[D-Phe-Pro-Sar-Phe] twice, 2.5 h prior to forced swimming daily.
The test system of a further data set is KOR KO mice. To be noted: 200 nmol i.c.v.; β-FNA 5 mg/kg s.c. −24 h.
Another data set addresses T1, KOR (Mus musculus, UniProt P33534).
T1 construct: from tissue; host or cells: living C57Bl/6 mice (whole animal; CNS and periphery)
Description: 55° C. warm-water tail-withdrawal assay, antagonism of U50,488-induced antinociception. The format is in vivo. Particulars: for KOR antagonism: i.c.v. pretreatment, U50,488 10 mg/kg i.p.

Data set [2] deals with mice. Description: Reinstatement of extinguished ethanol conditioned place preference. In kind it is in vivo, mouse. To be noted: 0.01 nmol i.c.v. The source says:
Similarly mice were place-conditioned using ethanol in a conditioned place-preference assay [Sperling, R. E., Gomes, S. M., Sypek, E. I., Carey, A. N. and McLaughlin, J. P., 2010. Endogenous kappa-opioid mediation of stress-induced potentiation of ethanol-conditioned place preference and self-administration. Psychopharmacology, 210, 199-209] with a biased conditioning paradigm (see McLaughlin, J. P., Ganno M. L., Eans, S. O., Mizrachi, E. and Paris, J. P., 2014. HIV-1 Tat protein exposure potentiates ethanol reward and reinstates extinguished ethanol-conditioned place preference. Current HIV Research, 12(6), 415-423). […] Mice were then pretreated once daily for two days with vehicle (50% DMSO in 0.9% saline, i.c.v.) or cyclo[D-Phe-Pro-Sar-Phe] (0.01 nmol, i.c.v.) and exposed to two days of forced swim stress or an additional cycle of ethanol place conditioning as described above.

A further data set concerns C57Bl/6 mice. Description: Reinstatement of extinguished cocaine conditioned place preference.
A further data set deals with MOR KO mice. In words: Opioid receptor selectivity of antinociception, tail-withdrawal assay in MOR KO mice. In kind it is in vivo, mouse. Particulars: i.c.v.
Another data set addresses T2, δ opioid receptor (Mus musculus, UniProt P32300).
T2 construct: from tissue; host or cells: living C57Bl/6 mice (whole animal)
Description: 55° C. warm-water tail-withdrawal assay, antagonism of SNC80-mediated antinociception. In kind it is in vivo. To be noted: 30 nmol i.c.v., 2.5 h pretreatment.

The next data set addresses T3, μ opioid receptor (Mus musculus, UniProt P42866).
T3 construct: mice are pretreated with the compound of the invention; from tissue; host or cells: living C57Bl/6 mice (whole animal)
Description: 55° C. warm-water tail-withdrawal assay, antagonism of morphine-mediated antinociception. To be noted: 30 nmol i.c.v., 2.5 h pretreatment. In kind it is in vivo.

Data set [3] is described as follows: In vitro metabolic stability in mouse liver microsomes. (Liver microsomes are a subcellular fraction often used to study metabolism.)
[4] abbreviates: liver microsomes, apparent t1/2 in mouse liver microsomes, mouse liver microsomes, 37° C.

“Also recorded” adds a separate entry of the source. Where a SMILES comes first, the peptide text is derived from it. [ ]: non-standard residue; d: D form. dNMeA = CN[C@H](C)C(=O)O; Sar = CNCC(=O)O

T1 sequence (P33534 whole entry): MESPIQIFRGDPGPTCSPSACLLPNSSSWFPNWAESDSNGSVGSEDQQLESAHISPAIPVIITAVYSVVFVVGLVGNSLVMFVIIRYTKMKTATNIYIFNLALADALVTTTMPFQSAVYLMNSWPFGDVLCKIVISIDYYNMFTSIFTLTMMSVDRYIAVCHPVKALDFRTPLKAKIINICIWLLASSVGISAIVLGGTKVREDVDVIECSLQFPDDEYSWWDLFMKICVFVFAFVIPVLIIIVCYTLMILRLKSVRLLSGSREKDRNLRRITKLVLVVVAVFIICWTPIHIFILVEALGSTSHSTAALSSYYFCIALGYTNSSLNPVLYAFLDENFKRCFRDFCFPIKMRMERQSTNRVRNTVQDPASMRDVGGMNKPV
T3 sequence (P42866 whole entry): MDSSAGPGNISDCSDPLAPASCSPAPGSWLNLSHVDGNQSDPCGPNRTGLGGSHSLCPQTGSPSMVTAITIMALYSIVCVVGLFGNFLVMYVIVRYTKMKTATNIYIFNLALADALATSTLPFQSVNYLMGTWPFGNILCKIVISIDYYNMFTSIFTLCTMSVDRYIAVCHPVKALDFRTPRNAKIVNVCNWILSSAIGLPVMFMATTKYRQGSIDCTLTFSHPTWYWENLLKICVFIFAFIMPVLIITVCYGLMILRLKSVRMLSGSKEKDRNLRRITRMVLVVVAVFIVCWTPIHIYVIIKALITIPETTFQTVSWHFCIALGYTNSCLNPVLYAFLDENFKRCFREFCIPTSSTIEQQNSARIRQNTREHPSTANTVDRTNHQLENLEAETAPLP
T2 sequence (P32300 whole entry): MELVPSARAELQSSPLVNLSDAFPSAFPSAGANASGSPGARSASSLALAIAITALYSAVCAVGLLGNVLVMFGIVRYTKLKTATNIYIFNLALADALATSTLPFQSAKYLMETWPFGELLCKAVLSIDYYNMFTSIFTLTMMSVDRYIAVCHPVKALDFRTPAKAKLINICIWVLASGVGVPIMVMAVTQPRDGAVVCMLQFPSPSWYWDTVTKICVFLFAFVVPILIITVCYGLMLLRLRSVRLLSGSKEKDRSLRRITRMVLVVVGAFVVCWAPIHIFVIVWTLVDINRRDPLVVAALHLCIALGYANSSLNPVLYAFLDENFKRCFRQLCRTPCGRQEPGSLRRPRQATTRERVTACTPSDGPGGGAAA

Regarding `Oc1ccc2c3c1O[C@H]1c4[nH]c5c(c4C[C@@]4(O)[C@@H](C2)N(CC2CC2)CC[C@]314)C[C@@]1(O)[C@H]2Cc3ccc(O)c4c3[C@@]1(CCN2CC1CC1)[C@H]5O4` [nor-BNI, nor-binaltorphimine, reference compound], in the data set with mice [1], the “stress-induced reinstatement of morphine CPP, peripheral pretreatment” value is reported as “prevented stress-induced reinstatement”.

For `CN1CC(=O)N[C@@H](Cc2ccccc2)C(=O)N[C@H](Cc2ccccc2)C(=O)N2CCC[C@H]2C1=O` [cyclo[D-Phe-Pro-Sar-Phe]] (cyclo(F[dF]P[Sar])), the “antinociception in KOR KO mice pretreated with MOR-selective antagonist β-FNA” value in the data set with KOR KO mice was “completely inhibited”. Moreover, the “antagonism of U50,488-induced antinociception after i.p. administration” value on KOR (2.5 h pretreatment, i.p.) is “dose-dependent antagonism of U50,488-induced antinociception”. In addition, at KOR, the “KOR antagonism” value is “significantly antagonized KOR in a dose-dependent manner; also recorded: significant antagonism of only the KOR-selective agonist U50,488”. Also, on KOR (i.c.v., 2.5 h pretreatment), the “dose giving significant blockade of U50,488-induced antinociception (KOR antagonism)” value is 1 pmol. Moreover, the “KOR antagonism after oral administration” value on KOR (p.o., 2.5 h after administration) is on record as “demonstrated KOR antagonism”. Also, the “antagonism of centrally administered (i.c.v.) U50,488 after oral administration” value at KOR (p.o., U50,488 i.c.v.) was “dose-dependently antagonized i.c.v. U50,488”. For the same compound, in the data set with mice [1] (0.01 nmol i.c.v.), the “morphine-induced reinstatement of morphine-CPP, lower dose” value is listed as “did not have significant effects” and the “reinstatement of extinguished morphine CPP by compound alone” value is “did not directly reinstate extinguished CPP”. For the same compound, the “stress-induced reinstatement of morphine CPP” value in the data set on mice [1] (0.01 nmol i.c.v., −2.5 h) is recorded as “prevented stress-induced reinstatement of morphine CPP”. Also, the “morphine-induced reinstatement of morphine-CPP” value in the data set on mice [1] (0.03 nmol i.c.v., 5 min pretreatment) is “prevented morphine-induced reinstatement of morphine-CPP”. Also, the “stress-induced reinstatement of morphine CPP, peripheral pretreatment” value in the data set with mice [1] is “prevented stress-induced reinstatement”. Moreover, in the data set with mice [2], the “stress- and ethanol-induced reinstatement of ethanol CPP (FIG. 11)” value was “prevented both stress- and ethanol-induced reinstatement of ethanol CPP”. For the same compound, the “stress-induced reinstatement of ethanol CPP” value in the data set on mice [2] (−2 h) is “prevented stress-induced reinstatement of ethanol CPP”. Moreover, the “cocaine-induced reinstatement of cocaine CPP” value in the data set on C57Bl/6 mice (0.01 nmol i.c.v., 5 min pretreatment) is on record as “prevented cocaine-induced reinstatement”. In addition, in the data set on C57Bl/6 mice (0.01 nmol i.c.v., no stress or cocaine), the “reinstatement of cocaine CPP by compound alone” value was “did not induce reinstatement”. The “stress-induced reinstatement of cocaine CPP” value in the data set with C57Bl/6 mice (0.01 nmol i.c.v., −1.5 h) is recorded as “prevented stress-induced reinstatement of cocaine CPP”. Further, in the data set on C57Bl/6 mice (30 mg/kg and 60 mg/kg p.o., −2.5 h), the “stress-induced reinstatement of cocaine CPP, oral” value is reported as “prevented stress-induced reinstatement of cocaine CPP”. Besides, the “stress- and cocaine-induced reinstatement of CPP after oral administration (FIG. 10B)” value in the data set with C57Bl/6 mice (p.o.) is “prevented both stress- and cocaine-induced reinstatement of CPP after oral administration”. The “antinociception in opioid receptor KO mice” value with MOR KO mice (1 nmol dose) is listed as “significantly impaired only in MOR KO mice”. Besides, in the data set with MOR KO mice (MOR KO mice), the “antinociception ED50 (and 95% C.I.) in MOR KO mice” value was 58.2 (17.4-558) nmol. Also, the “SNC80-mediated antinociception after pretreatment” value on δ opioid receptor is listed as 87.1±7.7%. Further, the “morphine-mediated antinociception after pretreatment” value at μ opioid receptor is recorded as 100±0%. Also, the half-life in data set [3] (setting [4]) was 60 min.

The compound `O=C1N[C@H](Cc2c[nH]c3ccccc23)C(=O)N[C@@H](Cc2ccccc2)C(=O)N2CCC[C@@H]2C(=O)N[C@H]1Cc1ccccc1` [[D-Trp]CJ-15,208, reference compound] (cyclo(F[dP]F[dW])) had a half-life in data set [3] (microsomes) of 11 min.

For `C[C@@H]1C(=O)N[C@@H](Cc2ccccc2)C(=O)N[C@H](Cc2ccccc2)C(=O)N2CCC[C@H]2C(=O)N1C` [cyclo[D-Phe-Pro-D-NMe-Ala-Phe]] (cyclo(F[dF]P[dNMeA])), the “KOR antagonism” value on KOR is given as “did not exhibit KOR antagonist activity”. Further, the half-life in [3] (setting [4]) turned out to be 12 min.

Broadly, the half-life is the time needed for the level to fall by half in the phase considered.
